Measured values published in patent US12545748B2, “Water-soluble 1,3-diphenylguanidine (DPG)-based supramolecular inclusion complex and preparation method and use thereof” (YANGZHOU UNIVERSITY, priority 2021, dated 2026).
Values after ≈ are worked out from the molar mass of the structure shown. Read-outs that look alike come from different tables or passages of the source.

Legend:
[1] = Solubilization experiment by ultraviolet-visible spectra (244 nm); settings: water, thermodynamic from solid
Description: Taking Examples 2 and 4 as examples, the solubilization effect was verified by comparing and analyzing absorption peaks of ultraviolet-visible spectra of the DPG raw material, the DPG-β-CDP inclusion complex, and the DPG-HP-β-CD inclusion complex. The results were shown in FIG. 5, β-CDP and HP-β-CD had no ultraviolet absorption peaks.

[2] = Thermogravimetric analysis (thermal stability); format: physicochemical
Procedure: Taking Examples 2 and 4 as examples, the thermal stability of DPG raw materials, HP-β-CD, β-CDP and their respective inclusion complexes were analyzed by thermogravimetric analysis, and the results were shown in FIG. 4.

[3] = in water at 25° C.; cited from earlier work
[4] = format: physicochemical
Procedure: 1. Determination of Inclusion Ratio and Inclusion Constant of Inclusion Complex by Ultraviolet-Visible Spectroscopy
According to a Benesi-Hildebrand method (J. Am. Chem. Soc. 1949, 71, 8, 2703-2707), it was obtained that: at 25° C., the complexation stability constants of HP-β-CD and β-CDP with DPG were 26.87 L/mol and 27.88 L/mol, respectively.

complexation stability constant with DPG [4]	Molecule	solubility [1]	second decomposition (temperature) [2]	began to decompose (temperature) ([2]; first decomposition)	solubility [3]
–	N=C(Nc1ccccc1)Nc1ccccc1 [DPG, 1,3-diphenylguanidine]	315 µg/mL (≈ 1490 µM)	256 °C	166 °C	about 315 mg/L
26.87 L/mol	hydroxypropyl-ß-cyclodextrin [HP-β-CD]	–	–	–	–
27.88 L/mol	β-cyclodextrin polymer [β-CDP]	–	–	–	–
